Measurements from US11964979B2, “Camsylate salts of triazolopyrazine derivatives” (ABION Inc., priority 2022, dated 2024).
Values after ≈ are worked out from the molar mass of the structure shown. Values joined by “and” are separate entries in the source; they are usually repeats but may differ in a detail not shown here. Equal entries are not always repeated. Where two headings read alike, the source gives them in different places.

Legend:
[1] = 40° C./75% RH
Protocol: Subsequently, all the solids were exposed to accelerated aging conditions (AAC) at 40° C./75% RH for 48 hours and re-measured by HT-XRPD to test their physical stability.

[2] = DVS analysis (hygroscopicity); assay type: physicochemical
Protocol: Differences in hygroscopicity (moisture uptake) of the various forms of a solid material provided a measure of their relative stability at increasing relative humidity. Moisture sorption isotherms of small samples were obtained using a DVS-1 system from Surface Measurement Systems (London, UK); this instrument is suitable for use with as little as a few milligrams of sample, with an accuracy of 0.1 μg. The relative humidity was varied during sorption-desorption-sorption (40-95-0-40% RH) at a constant temperature of 25° C., typically with a hold time of 60 minutes per step (10% relative humidity step). At the end of the DVS experiment the sample was measured by XRPD.
The hygroscopicity was classified according to the European Pharmacopoeia Hygroscopicity classification.

[3] = Physical and chemical stability study up to 2 years (XRPD, TGMS, HPLC)
[4] = Approximate solubility determination by adding aliquots of solvent; assay type: physicochemical; conditions: thermodynamic from solid
Protocol: The approximate solubility was determined by adding small aliquots of solvent (50 μL up to 1 mL, 100 μL above 1 mL) to the solid starting material until complete dissolution was observed or a maximum volume of 4 mL was reached. Afterwards the solvents were evaporated and obtained solids were analyzed by HT-XRPD.

[5] = Thermal stability study in solution (LCMS); assay type: physicochemical; conditions: for Area % (LCMS): approx. 0.3 mg/mL
Protocol: A thermal stability study was performed on ABN-401 to investigate the chemical stability of the starting material in solution when exposed to elevated temperatures. Solutions of ABN-401 were prepared in acetone, 1,2-dimethoxyethane, and acetonitrile with a concentration of approximately 0.3 mg/mL. Solutions were left at RT for 1 hour and successively, two aliquots of each solution were taken and heated at 50° C. and 80° C. for one hour. All these solutions were analyzed by LCMS. Additionally, the samples kept at RT were remeasured by LCMS after 24 hours to check the chemical degradation over time.
Starting material characterization and purity assessment of the novel crystalline forms of the free base: • Method name: S19061_03.M • Sample: • Concentration: 0.3 mg/ml • Diluent: Acetonitrile

CC1(C)[C@@H]2CC[C@]1(CS(=O)(=O)O)C(=O)C2.CN1CCN(Cc2ccc(-c3cnc(N4CCO[C@H](Cn5nnc6ncc(-c7cnn(C)c7)nc65)C4)nc3)cc2)CC1 [Camp5]
Form after AAC ([1]; Exp. ID GEN21, THF): Camp2

CC1(C)[C@@H]2CC[C@]1(CS(=O)(=O)O)C(=O)C2.CN1CCN(Cc2ccc(-c3cnc(N4CCO[C@H](Cn5nnc6ncc(-c7cnn(C)c7)nc65)C4)nc3)cc2)CC1 [Camp4]
Form after AAC ([1]; Exp. ID GEN16, Chloroform): Camp4
Form after AAC ([1]; Exp. ID GEN19, Heptane): Camp4
Form after AAC ([1]; Exp. ID GEN23, IPA/Water (97/3), lc = low crystalline): lc
Form after AAC ([1]; Exp. ID GEN25, 1,4-Dioxane/Water (96/4)): Camp4
Form after AAC ([1]; Exp. ID GEN26, THF/Water (95/5)): Camp4

CC1(C)[C@@H]2CC[C@]1(CS(=O)(=O)O)C(=O)C2.CN1CCN(Cc2ccc(-c3cnc(N4CCO[C@H](Cn5nnc6ncc(-c7cnn(C)c7)nc65)C4)nc3)cc2)CC1 (stereo in doubt) [Camp2]
Form identified by HT-XRPD in the solid recovered after DVS [2]: Camp4
Change in mass at 80% RH ([2]; 25° C.): 1.4%
Hygroscopicity (European Pharmacopeia Hygroscopicity classification) ([2]; based on change in mass at 80% RH): slightly hygroscopic
Water vapor uptake ([2]; first sorption half-cycle, at 95% RH, 25° C.): 15.6%
Change in mass ([2]; first sorption half-cycle, range 40→95% RH, 25° C.): 14.1%
Change in mass ([2]; last sorption half-cycle, range 0→40% RH, 25° C.): 6.6%
Reversibility of water uptake ([2]; sorption-desorption-sorption 40-95-0-40% RH): irreversible
API chemical purity (area %) ([3]; 25° C./60% RH for 1 month): 99.8%
Mass loss attributed to water (TGA/TGMS) ([3]; 25° C./60% RH for 1 month): 1.6%
Solid form by HT-XRPD after exposure ([3]; 25° C./60% RH for 1 month (GEN50)): Camp2
API chemical purity (area %) ([3]; 25° C./60% RH for 3 months): 99.7%
Mass loss attributed to water (TGA/TGMS) ([3]; 25° C./60% RH for 3 months): 1.6%
Solid form by HT-XRPD after exposure ([3]; 25° C./60% RH for 3 months (GEN51)): Camp2
API chemical purity (area %) ([3]; 25° C./60% RH for 15 months): 99.5% and 97.3%
Mass loss attributed to water (TGA/TGMS) ([3]; 25° C./60% RH for 15 months): 1.6%
Solid form by HT-XRPD after exposure ([3]; 25° C./60% RH for 15 months (GEN52)): Camp2
API chemical purity (area %) ([3]; 25° C./60% RH for 24 months): 100%
Mass loss attributed to water (TGA/TGMS) ([3]; 25° C./60% RH for 24 months): 1.9%
Solid form by HT-XRPD after exposure ([3]; 25° C./60% RH for 24 months (GEN53)): Camp2
Solid form conversion (HT-XRPD) ([3]; 25° C./60% RH up to 24 months): no solid form conversion occurred
Solid form conversion (HT-XRPD) ([3]; 40° C./75% RH): solid form conversions were observed after 3 months
API chemical purity (area %) ([3]; 40° C./75% RH for 1 month): 99.8%
Mass loss attributed to water (TGA/TGMS) ([3]; 40° C./75% RH for 1 month): 1.8%
Solid form by HT-XRPD after exposure ([3]; 40° C./75% RH for 1 month (GEN54)): Camp2
API chemical purity (area %) ([3]; 40° C./75% RH for 3 months): 99.3%
Mass loss attributed to water (TGA/TGMS) ([3]; 40° C./75% RH for 3 months): 7.1%
Solid form by HT-XRPD after exposure ([3]; 40° C./75% RH for 3 months (GEN55)): Camp4
API chemical purity (area %) ([3]; 40° C./75% RH for 15 months): 93.7%
Mass loss attributed to water (TGA/TGMS) ([3]; 40° C./75% RH for 15 months): 6.9%
Solid form by HT-XRPD after exposure ([3]; 40° C./75% RH for 15 months (GEN56)): Camp4
API chemical purity (area %) ([3]; 40° C./75% RH for 24 months): 88.6%
Mass loss attributed to water (TGA/TGMS) ([3]; 40° C./75% RH for 24 months): 6.7%
Solid form by HT-XRPD after exposure ([3]; 40° C./75% RH for 24 months (GEN57), E = Form E of the free base): Camp3+E
Form after AAC ([1]; Exp. ID GEN17, Ethanol): Camp2
Form after AAC ([1]; Exp. ID SSm60, ACN, API:CI 1:1): Camp2

CN1CCN(Cc2ccc(-c3cnc(N4CCOC(Cn5nnc6ncc(-c7cnn(C)c7)nc65)C4)nc3)cc2)CC1 (stereo not shown) [ABN-401]
Chemical degradation (LCMS) ([3]; 24 months at 25° C./60% RH and at 40° C./75% RH): chemical degradation is occurring at both conditions
Mass loss attributed to water (TGA/TGMS) ([3]; 25° C./60% RH for 1 month): 3.7%
Mass loss attributed to water (TGA/TGMS) ([3]; 25° C./60% RH for 3 months): 4.1%
Mass loss attributed to water (TGA/TGMS) ([3]; 25° C./60% RH for 15 months): 3.3%
API chemical purity (area %) ([3]; 25° C./60% RH for 24 months): 87.2%
Mass loss attributed to water (TGA/TGMS) ([3]; 25° C./60% RH for 24 months): 5.3%
Mass loss attributed to water (TGA/TGMS) ([3]; 40° C./75% RH for 1 month): 4.0%
Mass loss attributed to water (TGA/TGMS) ([3]; 40° C./75% RH for 3 months): 4.4%
Mass loss attributed to water (TGA/TGMS) ([3]; 40° C./75% RH for 15 months): 3.7%
API chemical purity (area %) ([3]; 40° C./75% RH for 24 months): 90.7%
Mass loss attributed to water (TGA/TGMS) ([3]; 40° C./75% RH for 24 months): 5.2%
solubility ([4]; organic solvent or mixture, 1,2-Dimethoxyethane (SAS6)): 12.7 to 13.8 mg/mL (≈ 22.4 to 24.4 mM)
solubility ([4]; organic solvent or mixture, 1,4-Dioxane (SAS4)): > 199 mg/mL
solubility ([4]; organic solvent or mixture, Acetone (SAS1)): 22.1 to 25.6 mg/mL (≈ 39 to 45.2 mM)
solubility ([4]; organic solvent or mixture, Chloroform (SAS3)): > 311 mg/mL
solubility ([4]; organic solvent or mixture, Ethyl acetate (SAS5)): 4.4 to 4.6 mg/mL (≈ 7.76 to 8.12 mM)
solubility ([4]; organic solvent or mixture, Isopropanol (SAS7)): < 2.7 mg/mL
solubility ([4]; organic solvent or mixture, Methanol (SAS8)): < 2.9 mg/mL
solubility ([4]; organic solvent or mixture, Tetrahydrofuran (SAS9)): > 181 mg/mL
solubility ([4]; Water (SAS10)): < 3.1 mg/mL
Area % (LCMS) ([5]; 1,2-dimethoxyethane solution, 1 h/50° C.): 98.6%
Area % (LCMS) ([5]; 1,2-dimethoxyethane solution, 1 h/80° C.): 97.7%
Area % (LCMS) ([5]; 1,2-dimethoxyethane solution, 1 h/RT): 99.0%
Area % (LCMS) ([5]; 1,2-dimethoxyethane solution, 24 h/RT): 98.8%
Area % (LCMS) ([5]; ACN solution, 1 h/50° C.): 99.0%
Area % (LCMS) ([5]; ACN solution, 1 h/80° C.): 98.7%
Area % (LCMS) ([5]; ACN solution, 1 h/RT): 99.0%
Area % (LCMS) ([5]; ACN solution, 24 h/RT): 98.1%
Area % (LCMS) ([5]; Acetone solution, 1 h/50° C.): 99.0%
Area % (LCMS) ([5]; Acetone solution, 1 h/80° C.): 99.0%
Area % (LCMS) ([5]; Acetone solution, 1 h/RT): 98.8%
Area % (LCMS) ([5]; Acetone solution, 24 h/RT): 98.5%
Chemical degradation in solution ([5]; samples kept at 50° C. and 80° C. for one hour, acetone, 1,2-dimethoxyethane, acetonitrile): No significant chemical degradation was observed

CC1(C)[C@@H]2CC[C@]1(CS(=O)(=O)O)C(=O)C2.CN1CCN(Cc2ccc(-c3cnc(N4CCO[C@H](Cn5nnc6ncc(-c7cnn(C)c7)nc65)C4)nc3)cc2)CC1 [Camp1]
Form after AAC ([1]; Exp. ID SSm14, Acetone, API:CI 1:1): Camp1
Form after AAC ([1]; Exp. ID SSm37, 1,2-Dimethoxyethane, API:CI 1:1): Camp1
